In article PMC8196580, “Identification of Kaurane-Type Diterpenes as Inhibitors of Leishmania Pteridine Reductase I” (Molecules, 2021):
Read-outs that look alike come from different tables or passages of the source.

Tests used:
[1] = tested on: L. major; parameters: method as in ChEMBL; details: ref ChEMBL, cited from earlier work
[2] = tested on: L. major; test: ChEMBL dataset of pIC50 values against L. major used for the RF model (Table S1); assay type: cell-based, Leishmania major; also: call rule not given here
[3] = ChemBL structures with pIC50 values used for Random forest model construction, L. major
[4] = Active/Inactive class assigned to the ChEMBL pIC50 value for Random forest model construction, ref ChEMBL
[5] = ChemBL structures with pIC50 values used for Random forest model construction (Table S1)
[6] = Active/Inactive class assigned to ChemBL structures for Random forest model construction (Table S1)

Structure (SMILES)	pIC50 Value [1, 3]	Outcome [2, 4]	pIC50 Value [1, 5]	Outcome [2, 6]
Cl.N=C(N)c1ccc(N2CCN(c3nnc(-c4ccc([N+](=O)[O-])o4)s3)CC2)cc1 [CHEMBL1783200]	3.95	Inactive	–	–
Cc1cc(C(=O)/C=C/c2cc3cccc(C)c3nc2Cl)c(C)s1 [CHEMBL1940865]	–	–	5.67	Active
CCCCCCN(CCCCCC)c1ccc(Nc2c3ccccc3nc3ccccc23)cc1 [CHEMBL88123]	–	–	6.62	Active
C/C(C=O)=C\CC/C(C)=C/Cc1cc(O)ccc1O [CHEMBL257343]	4.57	Inactive	–	–
O=[N+]([O-])c1ccc(-c2nnc(NCc3cn(Cc4ccccc4Cl)nn3)s2)o1 [CHEMBL1951525]	4.72	Inactive	–	–
O=C(/C=C/C1=Cc2cc(Cl)ccc2OC1)c1ccccc1F [CHEMBL1097964]	–	–	5.65	Active
Cn1c([N+](=O)[O-])cnc1-c1nnc(N2CCN(C(=O)c3cccs3)CC2)s1 [CHEMBL482666]	4.59	Inactive	–	–
Cc1ccc(-c2c(-c3ccccc3)nc3ccccn23)cc1 [CHEMBL2151857]	–	–	5.40	Active
O=C(c1ccc(Cl)cc1)N1CCN(c2nnc(-c3ccc([N+](=O)[O-])s3)s2)CC1 [CHEMBL515851]	4.62	Inactive	–	–
COc1ccccc1-c1nnc(-c2ccc(C(=O)N/N=C/c3ccccc3O)cc2)o1 [CHEMBL4074817]	–	–	5.38	Active
O=C(CCl)N1c2ccccc2CCc2ccccc21 [CHEMBL1314125]	4.36	Inactive	–	–
COc1ccc2c(=O)c(C(=O)O)csc2c1 [CHEMBL1255798]	4.00	Inactive	–	–
COc1ccccc1-c1nnc(-c2ccc(C(=O)N/N=C/c3cccc(O)c3O)cc2)o1 [CHEMBL4065149]	–	–	5.85	Active
Fc1ccccc1-c1nc2ccccn2c1-c1ccccc1 [CHEMBL2151876]	4.41	Inactive	–	–
COc1ccccc1-c1nnc(-c2ccc(C(=O)N/N=C/c3cccc([N+](=O)[O-])c3)cc2)o1 [CHEMBL4086911]	4.13	Inactive	–	–
O=[N+]([O-])c1ccc(-c2nnc(NCc3cn(Cc4ccc(Cl)cc4Cl)nn3)s2)o1 [CHEMBL1951534]	4.70	Inactive	–	–
O=C(C(Cl)Cl)N1c2ccccc2Oc2ccccc21 [CHEMBL3759299]	4.09	Inactive	–	–
CCC/C=C/C=C/c1nc2ccccc2n2cccc12 [CHEMBL3260210]	–	–	5.41	Active
COc1cc(C)cc2c1C(=O)C=C(C1=C(C)C(=O)c3ccc(O)c(OC)c3C1=O)C2=O [CHEMBL2071225]	–	–	10.28	Active
Cc1ccc(-c2nc3ccc([N+](=O)[O-])cc3[nH]2)o1 [CHEMBL2295863]	–	–	5.58	Active
O=C(/C=C/c1ccc(-n2ccnc2)cc1)c1ccc(Cl)c(Cl)c1 [CHEMBL570738]	–	–	5.54	Active

Structure (SMILES)	pIC50 Value [1, 3]	Outcome [2, 4]	pIC50 Value [1, 5]	Outcome [2, 6]
CC1=C2C(=O)c3c(O)ccc(O)c3CC2(C)CCC1=O (stereo not drawn) [CHEMBL255104]	3.52	Inactive	–	–
CN(C)Cc1c(O)ccc2c(=O)c(-c3cnn(-c4ccccc4)c3)coc12 [CHEMBL1256931]	4.13	Inactive	–	–
COc1cc(NS(C)(=O)=O)ccc1Nc1c2ccccc2nc2ccccc12 [CHEMBL43]	–	–	5.82	Active
COc1ccc([C@@H]2COc3c(ccc4c3C=CC(C)(C)O4)C2)c(OC)c1O [CHEMBL498725]	4.63	Inactive	–	–
COc1cc2c(c(OC)c1)C(C)N(c1cccc3ccccc13)C(C)C2 (stereo not drawn) [CHEMBL520770]	4.18	Inactive	–	–
O=C(/C=C/c1ccc(-n2ccnc2)cc1)c1cccc(F)c1F [CHEMBL570959]	–	–	5.57	Active
O=[N+]([O-])c1ccc(-c2nc3ccccc3[nH]2)cc1 [CHEMBL473361]	–	–	5.53	Active
COc1cc(OC)c2c(C)[n+](-c3ccc(Cl)cc3)c(C)cc2c1.F[B-](F)(F)F [CHEMBL481566]	4.72	Inactive	–	–
CCN(CC)CCCc1ccc(Nc2c3ccccc3nc3ccccc23)cc1 [CHEMBL89519]	–	–	6.52	Active
Cn1c([N+](=O)[O-])cnc1-c1nnc(N2CCN(C(=O)c3ccccc3Cl)CC2)s1 [CHEMBL482464]	4.69	Inactive	–	–
CN(C)c1ccc(Nc2c3ccccc3nc3ccccc23)cc1 [CHEMBL34941]	–	–	6.05	Active
C=C[C@H](/C=C\c1ccc(O)cc1)c1ccc(O)cc1 [CHEMBL451713]	4.92	Inactive	–	–
Cc1ccc2cc(/C=C/C(=O)c3ccc(C)s3)c(Cl)nc2c1 [CHEMBL1940853]	–	–	5.65	Active
O=[N+]([O-])c1ccc2[nH]c(-c3c[nH]c4ccccc34)nc2c1 [CHEMBL2297905]	–	–	5.65	Active
COC(=O)C1=C(C)NC(C)=C(C(=O)OC)C1c1ccccc1[N+](=O)[O-] [CHEMBL193]	3.74	Inactive	–	–
C[C@H]1COC2=C1C(=O)C(=O)c1c2ccc2c1C(=O)CCC2(C)C [CHEMBL519694]	4.59	Inactive	–	–
CC(C)Oc1cc(NC(=N)c2ccccn2)ccc1-c1ccc(-c2ccc(NC(=N)c3ccccn3)cc2OC(C)C)o1 [CHEMBL1275764]	–	–	7.85	Active
C=C[C@H]1CN2CCc3c([nH]c4ccccc34)[C@@H]2C[C@@H]1C(/C=C/OC)C(=O)OC (stereo partly drawn) [CHEMBL3752140]	–	–	5.52	Active
COc1ccccc1-c1nnc(-c2ccc(C(=O)N/N=C/c3c(O)cc(O)cc3O)cc2)o1 [CHEMBL4080097]	–	–	5.32	Active
COc1cc(/C=N\NC(N)=S)ccc1OCc1cn(CC(=O)c2ccc(Br)cc2)nn1 [CHEMBL4159895]	5.29	Active	–	–
CN(C)Cc1ccc(Nc2c3ccccc3nc3ccccc23)cc1 [CHEMBL290441]	–	–	6.00	Active

Structure (SMILES)	pIC50 Value [1, 3]	Outcome [2, 4]	pIC50 Value [1, 5]	Outcome [2, 6]
COc1ccccc1C(=O)N/N=C/c1ccc(Br)c(F)c1 [CHEMBL2382032]	4.11	Inactive	–	–
Cc1cccc2cc(C3CC(c4sccc4Cl)=NN3)c(Cl)nc12 (stereo not drawn) [CHEMBL2236129]	–	–	5.63	Active
COc1ccccc1-c1nc2ccccn2c1-c1ccccc1 [CHEMBL2151883]	4.74	Inactive	–	–
CC(c1ccccc1)N1CN(CCO)CSC1=S (stereo not drawn) [CHEMBL4279631]	4.49	Inactive	–	–
NP(=O)(OCc1ccc([N+](=O)[O-])cc1F)N(CCCl)CCCl (stereo not drawn) [CHEMBL1256991]	–	–	5.33	Active
O=C(CBr)N1c2ccccc2Oc2ccc(Cl)cc21 [CHEMBL3759174]	4.00	Inactive	–	–
CCCCCNCc1ccc(Nc2c3ccccc3nc3ccccc23)cc1 [CHEMBL89683]	–	–	5.70	Active
Cc1ccc(C(=O)/C=C/c2cc3cccc(C)c3nc2Cl)s1 [CHEMBL1940864]	–	–	5.73	Active
CCCN(CCC)c1ccc(Nc2c3ccccc3nc3ccccc23)cc1 [CHEMBL88980]	–	–	6.70	Active
Cc1cccc2cc(C3CC(c4ccc(I)s4)=NN3)c(Cl)nc12 (stereo not drawn) [CHEMBL2236134]	–	–	5.77	Active
Cc1cccc2oc(=O)c3c(c12)O[C@@H](C)[C@@]3(C)CC(=O)[C@@H]1OC1(C)C [CHEMBL465559]	4.43	Inactive	–	–
COc1ccccc1-c1nnc(-c2ccc(C(=O)N/N=C/c3ccc(Cl)cc3Cl)cc2)o1 [CHEMBL4068809]	5.29	Active	–	–
CC(C)C1=Cc2ccc3c(c2C(=O)C1=O)C(=O)CCC3(C)C [CHEMBL485479]	4.75	Inactive	–	–
CC(C)(O)[C@@H]1CC[C@](C)([C@H]2[C@@H](O)C[C@@]3(C)[C@@H]4C[C@H](O)[C@H]5C(C)(C)[C@@H](O[C@@H]6OC[C@@H](O)[C@H](O)[C@H]6O)CC[C@@]56C[C@@]46CC[C@]23C)O1 [CHEMBL500607]	4.25	Inactive	–	–
COc1cccc(/C=C/C(=O)C2=Cc3cc(Cl)ccc3OC2)c1OC [CHEMBL1095287]	–	–	5.55	Active
CCCCCCNc1ccc(Nc2c3ccc(N(C)C)cc3nc3cc(N(C)C)ccc23)cc1 [CHEMBL86823]	–	–	6.80	Active
O=C(c1ccc(Cl)s1)N1CCN(c2nnc(-c3ccc([N+](=O)[O-])s3)s2)CC1 [CHEMBL464870]	4.62	Inactive	–	–
NCCOc1cc(C(=O)Nc2cc(OCCN)c3ccccc3n2)nc(C(=O)Nc2cc(OCCN)c3ccccc3n2)c1 [CHEMBL2349416]	–	–	5.30	Active
CCc1ccc(-[n+]2c(C)cc3cc(OC)cc(OC)c3c2C)cc1.F[B-](F)(F)F [CHEMBL479649]	5.26	Active	–	–
O=[N+]([O-])c1ccc(-c2nnc(N3CCOCC3)s2)o1 [CHEMBL365770]	5.28	Active	–	–
COc1ccccc1C(=O)N/N=C/c1ccccc1O [CHEMBL2382037]	4.45	Inactive	–	–
